Tests used:
[1] = refractive index (Na D-line) (dimensionless); conditions: 298.15 K; 101.33 kPa; Liquid; refractometer
[2] = 298.15 K; 101.33 kPa; Liquid; Vibrating tube method
[3] = excess molar enthalpy (molar enthalpy of mixing); xn = mol fraction of the nth substance listed; conditions: 298.15 K, 101 kPa, Liquid, Flow calorimetry

COCCOC(C)=O [2-methoxyethyl ethanoate]
Conditions | mass density [kg/m3] | refractive index
[1] | – | 1.39988
[2] | 999.76 | –

CCOCCOC(C)=O [2-ethoxyethyl ethanoate] + CC(Cl)CCl
[3]
Conditions | excess molar enthalpy [kcal/mol]
x2 = 0.0532 | -0.0175
x2 = 0.1067 | -0.0303
x2 = 0.1585 | -0.0476
x2 = 0.2088 | -0.0594
x2 = 0.2575 | -0.0693
x2 = 0.3049 | -0.0772
x2 = 0.351 | -0.08413
x2 = 0.3957 | -0.08934
x2 = 0.4605 | -0.09474
x2 = 0.5022 | -0.09634
x2 = 0.5428 | -0.09677
x2 = 0.6017 | -0.09524
x2 = 0.6583 | -0.09261
x2 = 0.6949 | -0.08788
x2 = 0.748 | -0.0794
x2 = 0.7991 | -0.0688
x2 = 0.8485 | -0.0565
x2 = 0.896 | -0.0419
x2 = 0.9569 | -0.0198

CCCCOCCOC(C)=O [2-butoxyethyl acetate]
Conditions | mass density [kg/m3] | refractive index
[1] | – | 1.41183
[2] | 935.12 | –

CC(Cl)CCl (stereo not given) [1,2-dichloropropane]
Conditions | mass density [kg/m3] | refractive index
[1] | – | 1.43653
[2] | 1148.95 | –

CCOCCOC(C)=O [2-ethoxyethyl ethanoate]
Conditions | mass density [kg/m3] | refractive index
[1] | – | 1.40311
[2] | 967.36 | –

CCCCOCCOC(C)=O [2-butoxyethyl acetate] + CC(Cl)CCl
[3]
Conditions | excess molar enthalpy [kcal/mol]
x2 = 0.0659 | -0.0225
x2 = 0.0985 | -0.0299
x2 = 0.1611 | -0.0499
x2 = 0.1911 | -0.0545
x2 = 0.2486 | -0.0684
x2 = 0.3032 | -0.079
x2 = 0.3549 | -0.08791
x2 = 0.4041 | -0.09455
x2 = 0.4509 | -0.09775
x2 = 0.4955 | -0.1004
x2 = 0.5585 | -0.1023
x2 = 0.5982 | -0.1015
x2 = 0.6545 | -0.09778
x2 = 0.7073 | -0.0914
x2 = 0.7568 | -0.0831
x2 = 0.8035 | -0.0727
x2 = 0.8615 | -0.0569
x2 = 0.9022 | -0.0431
x2 = 0.9531 | -0.0226

COCCOC(C)=O [2-methoxyethyl ethanoate] + CC(Cl)CCl
[3]
Conditions | excess molar enthalpy [kcal/mol]
x2 = 0.0464 | -0.0141
x2 = 0.0936 | -0.0253
x2 = 0.1401 | -0.0365
x2 = 0.2084 | -0.0512
x2 = 0.253 | -0.06
x2 = 0.2969 | -0.0674
x2 = 0.3402 | -0.0748
x2 = 0.4038 | -0.08196
x2 = 0.4454 | -0.08535
x2 = 0.5066 | -0.08855
x2 = 0.5467 | -0.08953
x2 = 0.6056 | -0.08855
x2 = 0.6442 | -0.0864
x2 = 0.701 | -0.0811
x2 = 0.7566 | -0.0746
x2 = 0.811 | -0.0636
x2 = 0.8466 | -0.0549
x2 = 0.8991 | -0.0402
x2 = 0.9505 | -0.0217
